Laboratory results: paper PMC3488358 (Chemical biology & drug design, 2013)
“And” between values parts separate entries of the source, which are not always exact repeats. Identical values can stand only once. Like-named read-outs stand apart in the source and are kept apart here.

Experiments:
P. falciparum (D6 Clone) = assay type: cell-based, Plasmodium falciparum; conditions: read-out: P. falciparum (D6 Clone) IC50; chloroquine-sensitive D6 clone
P. falciparum (W2 Clone) = assay type: cell-based, Plasmodium falciparum; conditions: read-out: P. falciparum (W2 Clone) IC50; chloroquine-resistant W2 clone
[1] = test system: Leishmania donovani promastigotes; assay: In vitro antileishmanial activity, Alamar Blue assay; assay type: cell-based; conditions: for IC50: read-out: L. donovani IC50; for IC90: read-out: L. donovani IC90
[2] = test system: Staphylococcus aureus ATCC 29213; assay: Antibacterial susceptibility testing; assay type: cell-based
[3] = test system: Methicillin-resistant S. aureus ATCC 33591 (MRSA); assay: Antibacterial susceptibility testing; assay type: cell-based, Staphylococcus aureus
[4] = test system: Escherichia coli ATCC 35218; assay: Antibacterial susceptibility testing; assay type: cell-based
[5] = test system: Pseudomonas aeruginosa ATCC 27853; assay: Antibacterial susceptibility testing; assay type: cell-based
[6] = test system: Mycobacterium intracellulare ATCC 23068; assay: Antibacterial susceptibility testing; assay type: cell-based
[7] = test system: Candida albicans ATCC 90028; assay: In vitro antifungal activity; assay type: cell-based
[8] = test system: Candida glabrata ATCC 90030; assay: In vitro antifungal activity; assay type: cell-based
Candida krusei ATCC 6258 = assay: In vitro antifungal activity; assay type: cell-based
[9] = test system: Cryptococcus neoformans ATCC 90113; assay: In vitro antifungal activity; assay type: cell-based
[10] = test system: Aspergillus fumigatus ATCC 204305; assay: In vitro antifungal activity; assay type: cell-based
HIV-1NL4.3 virus = assay: Anti-HIV activity, p24 antigen capture ELISA in CEM-GFP cells; assay type: cell-based; conditions: CEM-GFP cells infected with HIV-1NL4.3, non-cytotoxic concentration

## CCCCC[C@@H]1C[C@@H]2CC[C@@H]3C[C@H](C)NC(=N1)N32 (racemic) [17l, batzelladine K]
P. falciparum (D6 Clone)
  IC50: 14.8 µM
P. falciparum (W2 Clone)
  IC50: 13.7 µM
[1]; promastigotes
  IC50: 48.2 µM
  IC90: 124 µM
[2]
  S. aureus MBC: - (“-” = Not active at the highest test concentration of 20 μg/mL)
  S. aureus MIC: 80.32 µM
[2]; read-out: S. aureus IC50
  IC50: 64.1 µM
[3]
  MRSA MBC: - (“-” = Not active at the highest test concentration of 20 μg/mL)
  MRSA MIC: 80.3 µM
[3]; read-out: MRSA IC50
  IC50: 56 µM and 56.1 µM
[4]
  E.coli IC50: - (“-” = Not active at the highest test concentration of 20 μg/mL)
  E.coli MBC: - (“-” = Not active at the highest test concentration of 20 μg/mL)
  E.coli MIC: - (“-” = Not active at the highest test concentration of 20 μg/mL)
[5]
  P. aeruginosa IC50: - (“-” = Not active at the highest test concentration of 20 μg/mL)
  P. aeruginosa MBC: - (“-” = Not active at the highest test concentration of 20 μg/mL)
  P. aeruginosa MIC: - (“-” = Not active at the highest test concentration of 20 μg/mL)
[6]
  M. intracellulare MBC: - (“-” = Not active at the highest test concentration of 20 μg/mL)
  M. intracellulare MIC: - (“-” = Not active at the highest test concentration of 20 μg/mL)
[6]; read-out: M. intracellulare IC50
  IC50: 79.5 µM
[7]
  Candida albicans MFC: - (“-” = No activity at the highest test concentration of 20 μg/mL)
  Candida albicans MIC: - (“-” = No activity at the highest test concentration of 20 μg/mL)
[8]
  Candida glabrata MFC: - (“-” = No activity at the highest test concentration of 20 μg/mL)
  Candida glabrata MIC: - (“-” = No activity at the highest test concentration of 20 μg/mL)
Candida krusei ATCC 6258
  Candida krusei MFC: - (“-” = No activity at the highest test concentration of 20 μg/mL)
  Candida krusei MIC: - (“-” = No activity at the highest test concentration of 20 μg/mL)
[9]
  Cryptococcus neoformans MFC: - (“-” = No activity at the highest test concentration of 20 μg/mL)
  Cryptococcus neoformans MIC: - (“-” = No activity at the highest test concentration of 20 μg/mL)
[9]; read-out: Cryptococcus neoformans IC50
  IC50: 76.2 µM
[10]
  Aspergillus fumigatus MFC: - (“-” = No activity at the highest test concentration of 20 μg/mL)
  Aspergillus fumigatus MIC: - (“-” = No activity at the highest test concentration of 20 μg/mL)
HIV-1NL4.3 virus
  anti-HIV activity (inhibition of HIV-1): no anti-HIV activity

## N=C(N)c1ccc(OCCCCCOc2ccc(C(=N)N)cc2)cc1 [Pentamidine]
[1]; Leishmania donovani
  IC50: 2.94 µM
  IC90: 5.88 µM

## C[C@@H]1[C@H](O)[C@@H](C)/C=C/C=C/C=C/C=C/C=C/C=C/C=C/[C@H](O[C@@H]2O[C@H](C)[C@@H](O)[C@H](N)[C@@H]2O)C[C@@H]2O[C@](O)(C[C@@H](O)C[C@@H](O)[C@H](O)CC[C@@H](O)C[C@@H](O)CC(=O)O[C@H]1C)C[C@H](O)[C@H]2C(=O)O [Amphotericin B]
[1]; Leishmania donovani
  IC50: 0.173 µM
  IC90: 0.358 µM
